1 compound from patent publication US20100104546A1, “MODULATORS OF ANTIGEN-DEPENDENT T CELL PROLIFERATION” (CHILDREN, YOUTH AND WOMEN'S HEALTH SERVICE, priority 2007, published 2010) can be followed below.

This test has as its system splenic T cells and MHC class II cells. Put plainly: Co-culture of enriched splenic T cells and MHC class II cells, SRBC-induced proliferation. The note with it: 80 mg/kg IP, 3 days. The class given is in vivo, mice. The protocol: (A) β-oxa-21:3n-3 (80 mg/kg) or vehicle was injected once intraperitoneally to 5 days SRBC-sensitized mice. After the indicated time period spleens were removed and cell suspensions were incubated in the presence or absence of SRBC for 3 days. Thymidine incorporation for final 16 hours of culture was determined. Percent inhibition of proliferation by β-oxa-21:3n-3 compared to vehicle injected animals are depicted against duration of exposure. (B) β-oxa-21:3n-3 (80 mg/kg) or vehicle was injected once intraperitoneally to 5 days SRBC-sensitized mice. After two hours spleens were removed and T cell and MHC II positive cells were enriched using MACS magnetic beads. As indicated, vehicle and β-oxa-21:3n-3 injected animal's enriched cells were then co-cultured in the presence or absence of SRBC for 3 days. Thymidine incorporation for final 16 h of culture was determined. Splenocytes proliferation is plotted versus the type of co-cultured cells.
In co-culture experiments negative selection purification systems were utilized to ensure isolation of untouched cells to avoid side effects on cell viability and activity. […] For accuracy in cell counts and cell viability, the enriched cells were also inspected by hemocytometer and then counted using Cell-Dyne 3500R (ABBOTT, Inc. MA) and then co-cultured. […]

Consider `CC/C=C\C/C=C\C/C=C\CCCCCCCCOCC(=O)O` [β-oxa-21:3n-3], for which the “splenocyte proliferation, MHC class II cells from treated animals co-cultured with T cells from either treated or vehicle animals” value was “no suppression” and the “splenocyte proliferation, T cells from treated animals co-cultured with MHC class II cells from treated or vehicle animals” value was “suppressed”.
